Test results: US20190231785A1, “PHOSPHODIESTERASE INHIBITOR TREATMENT” (Cyrano Therapeutics, Inc., priority 2012, published 2019)
Marks after values point to notes of the source that are not given here.

Test system: patients with hyposmia
Assay: Olfactometry (DT, RT, ME, H; forced-choice, three-stimuli, stepwise-staircase, four odors), open trial of oral theophylline
Type: in vivo, human
Text: Patients initially reported their sensory dysfunction as either loss of taste (e.g., flavor) and/or smell function. This subjective response was documented by objective psychophysical measurements of olfactory function administered to each patient by use of a forced-choice, three-stimuli, stepwise-staircase technique in a fixed, controlled design (1, 53). Efficacy of this technique and results of testing were previously documented in a double-blind clinical trial (53). Four odors were used; they were pyridine (dead-fish odor), nitrobenzene (bitter-almond odor), thiophene (petroleum-like odor) and amyl acetate (banana-oil odor). Detection thresholds (DT), recognition thresholds (RT) and magnitude estimation (ME) values for each odor were determined as previously described (1, 53). Thresholds were converted into bottle units (BU) as previously described (53) and results reported as M±SEM of correct responses for each odor in each treatment group; ME was reported in % and results calculated to obtain M±SEM for each treatment group for all correct responses using data for the four highest odor concentrations presented (from 10^−2M—an absolute odor concentration).
In addition, each patient graded the hedonic (H) value of each odor presented for these same odor concentrations (from 10^−2M—an absolute odor concentration using a −100-0-+100 scale). […] Results were obtained by calculating the arithmetical sum of each correct recognition response for each odor with respect to its pleasantness, unpleasantness or neutrality. Arithmetic M±SEM were obtained for each treatment group for each odor presented.
After determination of hyposmia, patients were treated in an open label, fixed design, controlled open trial. Patients were given an oral extended release theophylline in divided daily doses taken in the middle of breakfast and lunch. All patients were initially given 200 mg of theophylline; changes in this dose were made based upon subjective responses to therapy. If at a subsequent return visit, patients reported ≥5% subjective improvement in overall smell function, they continued on this same dose of theophylline and were reevaluated after four to six months of continued treatment. Results from any subsequent return from these improved patients were not included in any subsequent data report. All subsequent comparisons between treated and untreated patients were made only between those patients continuing in the study compared to their own measurements obtained in the untreated state. If patients reported <5% subjective improvement, their theophylline dose was increased by 200 mg daily and they were scheduled for retesting at the study site after two to four months at this new dosage. For patients that reported <5% improvement, this sequence continued until patients reached 800 mg of theophylline, at which time the study was considered completed.
Patients returned for reevaluation after two to four months of treatment. Measurements of blood serum theophylline were measured by a fluorescence polarization assay (Abbott, Chicago, Ill.). At this time, subjective changes in smell function were measured independently (compared to patient's memory of previous normal smell function monitored by use of the patients' daily measurements) using the scale from −100-0-+100 previously described (vs). After independently recording their subjective responses, smell function was measured for all four odors with DT, RT, ME and H determined without recourse to prior measurements.
Since data for all measurements from each patient group (local or distant) on each dose level were combined mean and SEM for each measurement (DT, RT, ME, H) of smell function for each treatment group were calculated on this basis. Differences in measurements between before treatment and each treatment level were calculated and significance of differences estimated using Student t tests (values p<0.05 considered significant). […]

[1] = Type I hyposmia, oral 200 mg, after treatment (57 patients), mean ± SEM
[2] = Type I hyposmia, oral 400 mg, after treatment (33 patients), mean ± SEM
[3] = Type I hyposmia, oral 600 mg, after treatment (51 patients), mean ± SEM
[4] = Type I hyposmia, oral 800 mg, after treatment (12 patients), mean ± SEM
[5] = Type II hyposmia, oral 200 mg, after treatment (138 patients)
[6] = Type II hyposmia, oral 400 mg, after treatment (85 patients)
[7] = Type II hyposmia, oral 600 mg, after treatment (105 patients)

For `Cn1c(=O)c2[nH]cnc2n(C)c1=O` [theophylline], the “detection threshold (DT), pyridine” value [1] was 9.5 ± 0.2 BU, the “hedonic value (H), amyl acetate” value [1] was 4 ± 2^a % and the “hedonic value (H), nitrobenzene” value [1] was 4 ± 2^a %. For the same molecule, the “hedonic value (H), pyridine” value [1] was −8 ± 2^a %, the “hedonic value (H), thiophene” value [1] was −3 ± 2^a % and the “magnitude estimation (ME), amyl acetate” value [1] was 6 ± 2^a %. For the same molecule, the “magnitude estimation (ME), nitrobenzene” value [1] was 5 ± 2^a %, the “magnitude estimation (ME), pyridine” value [1] was 11 ± 2^a % and the “magnitude estimation (ME), thiophene” value [1] was 6 ± 2^a %. The “recognition threshold (RT), pyridine” value [1] was 11.0 ± 0.2^a BU, the “detection threshold (DT), nitrobenzene” value [2] was 9.8 ± 0.5^a BU and the “detection threshold (DT), pyridine” value [2] was 8.8 ± 0.5 BU. For the same molecule, the “detection threshold (DT), thiophene” value [2] was 9.8 ± 0.5^a BU, the “hedonic value (H), amyl acetate” value [2] was 5 ± 3^a % and the “hedonic value (H), nitrobenzene” value [2] was 3 ± 3^a %. For the same molecule, the “hedonic value (H), pyridine” value [2] was −7 ± 3^a %, the “hedonic value (H), thiophene” value [2] was −5 ± 2^a % and the “magnitude estimation (ME), amyl acetate” value [2] was 7 ± 3^a %. The “magnitude estimation (ME), nitrobenzene” value [2] was 8 ± 3^a %, the “magnitude estimation (ME), pyridine” value [2] was 12 ± 3^a % and the “magnitude estimation (ME), thiophene” value [2] was 7 ± 2^a %. For the same molecule, the “recognition threshold (RT), pyridine” value [2] was 10.6 ± 0.4 BU, the “detection threshold (DT), nitrobenzene” value [3] was 9.9 ± 0.4^c BU and the “detection threshold (DT), pyridine” value [3] was 8.9 ± 0.3^b BU. The “detection threshold (DT), thiophene” value [3] was 9.4 ± 0.4^a BU, the “hedonic value (H), amyl acetate” value [3] was −0.4 ± 1% and the “hedonic value (H), nitrobenzene” value [3] was 2 ± 2%. For the same molecule, the “hedonic value (H), pyridine” value [3] was −8 ± 2^a %, the “hedonic value (H), thiophene” value [3] was −3 ± 2^a % and the “magnitude estimation (ME), amyl acetate” value [3] was 5 ± 2^a %. The “magnitude estimation (ME), nitrobenzene” value [3] was 6 ± 2^a %, the “magnitude estimation (ME), pyridine” value [3] was 11 ± 3^a % and the “magnitude estimation (ME), thiophene” value [3] was 7 ± 2^a %. For the same molecule, the “detection threshold (DT), thiophene” value [4] was 10.0 ± 0.7 BU, the “hedonic value (H), amyl acetate” value [4] was −1 ± 4% and the “hedonic value (H), nitrobenzene” value [4] was 2 ± 2^a %. The “hedonic value (H), pyridine” value [4] was −11 ± 5^a %, the “hedonic value (H), thiophene” value [4] was −4 ± 2^a % and the “magnitude estimation (ME), amyl acetate” value [4] was 5 ± 3^a %. For the same molecule, the “magnitude estimation (ME), nitrobenzene” value [4] was 4 ± 3^a %, the “magnitude estimation (ME), pyridine” value [4] was 10 ± 4^a % and the “magnitude estimation (ME), thiophene” value [4] was 4 ± 2^a %. For the same molecule, the “detection threshold (DT), amyl acetate” value [5] was 7.0 ± 0.3 BU, the “detection threshold (DT), nitrobenzene” value [5] was 6.9 ± 0.3^a BU and the “detection threshold (DT), pyridine” value [5] was 6.9 ± 0.2 BU. For the same molecule, the “detection threshold (DT), thiophene” value [5] was 6.5 ± 0.3 BU, the “hedonic value (H), amyl acetate” value [5] was 3 ± 2% and the “hedonic value (H), nitrobenzene” value [5] was 7 ± 2%. For the same molecule, the “hedonic value (H), pyridine” value [5] was −28 ± 2%, the “hedonic value (H), thiophene” value [5] was −19 ± 2% and the “magnitude estimation (ME), amyl acetate” value [5] was 19 ± 2%. The “magnitude estimation (ME), nitrobenzene” value [5] was 22 ± 2%, the “magnitude estimation (ME), pyridine” value [5] was 35 ± 2% and the “magnitude estimation (ME), thiophene” value [5] was 27 ± 2%. The “recognition threshold (RT), amyl acetate” value [5] was 9.3 ± 0.2 BU, the “recognition threshold (RT), nitrobenzene” value [5] was 8.8 ± 0.3 BU and the “recognition threshold (RT), pyridine” value [5] was 8.2 ± 0.2^a BU. For the same molecule, the “recognition threshold (RT), thiophene” value [5] was 8.2 ± 0.3^a BU, the “detection threshold (DT), amyl acetate” value [6] was 6.1 ± 0.4^a BU and the “detection threshold (DT), nitrobenzene” value [6] was 6.3 ± 0.4^a BU. The “detection threshold (DT), pyridine” value [6] was 6.3 ± 0.3^a BU, the “detection threshold (DT), thiophene” value [6] was 5.7 ± 0.4 BU and the “hedonic value (H), amyl acetate” value [6] was 0.3 ± 2.8%. For the same molecule, the “hedonic value (H), nitrobenzene” value [6] was 11 ± 3%, the “hedonic value (H), pyridine” value [6] was −34 ± 3% and the “hedonic value (H), thiophene” value [6] was −23 ± 3%. The “magnitude estimation (ME), amyl acetate” value [6] was 21 ± 3%, the “magnitude estimation (ME), nitrobenzene” value [6] was 27 ± 3^a % and the “magnitude estimation (ME), pyridine” value [6] was 41 ± 3^a %. The “magnitude estimation (ME), thiophene” value [6] was 31 ± 3%, the “recognition threshold (RT), amyl acetate” value [6] was 8.8 ± 0.4^a BU and the “recognition threshold (RT), nitrobenzene” value [6] was 8.2 ± 0.4^a BU. For the same molecule, the “recognition threshold (RT), pyridine” value [6] was 7.7 ± 0.3^a BU, the “recognition threshold (RT), thiophene” value [6] was 7.6 ± 0.4^a BU and the “detection threshold (DT), amyl acetate” value [7] was 6.8 ± 0.3^a BU. The “detection threshold (DT), nitrobenzene” value [7] was 6.8 ± 0.3^a BU, the “detection threshold (DT), pyridine” value [7] was 6.7 ± 0.3^a BU and the “detection threshold (DT), thiophene” value [7] was 6.1 ± 0.3^a BU. For the same molecule, the “hedonic value (H), amyl acetate” value [7] was 7 ± 2%, the “hedonic value (H), nitrobenzene” value [7] was 11 ± 2% and the “hedonic value (H), pyridine” value [7] was −25 ± 3%. For the same molecule, the “hedonic value (H), thiophene” value [7] was −20 ± 2%, the “magnitude estimation (ME), amyl acetate” value [7] was 19 ± 2% and the “magnitude estimation (ME), nitrobenzene” value [7] was 24 ± 2%. The “magnitude estimation (ME), pyridine” value [7] was 33 ± 2%, the “magnitude estimation (ME), thiophene” value [7] was 27 ± 2% and the “recognition threshold (RT), amyl acetate” value [7] was 8.9 ± 0.3^a BU. For the same molecule, the “recognition threshold (RT), nitrobenzene” value [7] was 8.4 ± 0.3 BU and the “recognition threshold (RT), pyridine” value [7] was 8.9 ± 0.3 BU.
